From article PMC7024217, “Study on Structure Activity Relationship of Natural Flavonoids against Thrombin by Molecular Docking Virtual Screening Combined with Activity Evaluation In Vitro” (Molecules, 2020) come the findings set out here.

A word on the IC50: it is the midpoint of a concentration-inhibition curve.

Read-outs that look alike come from different tables or passages of the source. Some results are limits rather than exact numbers.

The target in the assay is T1, bovine thrombin (Bos taurus, UniProt P00735).
T1 construct: bovine thrombin and argatroban were purchased from Sigma-Aldrich; purchased Sigma-Aldrich (St. Louis, MO, USA)
Briefly: Thrombin inhibitory activity assay (chromogenic substrate S-2238).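 As to all read-outs here: microplate absorbance read-out, thrombin preincubated with test compound 5 min at 37 °C in PBS pH 7.2-7.4, inhibition relative to blank without compound after subtracting compound-only background.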 Format: biochemical. Particulars: for Group (inhibitor class) / inhibitor class: class by anti-thrombin IC50.

[1] abbreviates: Table 1, anti-thrombin, substrate S-2238 4 mg/mL, read-out: IC50.
[2] abbreviates: Table 2, anti-thrombin, read-out: IC50 ±SD.
Where [3] appears, read: thrombin inhibition, substrate 4 mg/mL, read-out: IC50.

Take `O=C(OC1Cc2c(O)cc(O)cc2OC1c1ccc(O)c(O)c1)c1cc(O)c(O)c(O)c1` (single isomer, unassigned; (-)) [(-)-Epicatechin gallate]: the IC50 under setting [1] was over 500 µM.

Under “IC50”, `Oc1cc(O)c2c(c1)OC(c1cc(O)c(O)c(O)c1)C(O)C2` (single isomer, unassigned; (-)) [(-)-epigallocatechin] had an IC50 of over 500 µM.

Turning to `O=c1cc(-c2ccc(O)cc2)oc2cc(O)cc(O)c12` [Apigenin], where the note is “Table 2”, the “Group (inhibitor class)” value is given as “Strong inhibitor”.

Consider `O=c1c(OC2OC(CO)C(O)C(O)C2O)c(-c2ccc(O)cc2)oc2cc(O)cc(O)c12` (stereo not drawn) [Astragaline], for which the inhibitor class entry is on record as “weak thrombin inhibitors (classified as weak thrombin inhibitors since their IC50 values ranged from 200 μM to 500 μM)”. Besides, under setting [1], the IC50 was 217 ± 5 µM.

Take `O=c1cc(-c2ccccc2)oc2cc(O)c(O)c(O)c12` [Baicalein]: the inhibitor class result is given as “weak thrombin inhibitors (classified as weak thrombin inhibitors since their IC50 values ranged from 200 μM to 500 μM)”. Moreover, the IC50 under setting [1] came to 249 ± 31 µM.

For `O=C(O)[C@H]1O[C@@H](Oc2cc3oc(-c4ccccc4)cc(=O)c3c(O)c2O)[C@H](O)[C@@H](O)[C@@H]1O` [Baicalin], the IC50 turned out to be 88.6 ± 8.2 µM under setting [1] and 88.6 ± 8.2 µM under setting [2]. The “Group (inhibitor class)” value (Table 2) is recorded as “Strong inhibitor”.

Turning to `O=C1c2c(O)cc(O)cc2O[C@H](c2cc(O)c(O)c(O)c2)[C@H]1O` [Dihydromyricetin], the IC50 under setting [1] was over 500 µM.

With `O=C1c2c(O)cc(O)cc2O[C@H](c2ccc(O)c(O)c2)[C@H]1O` [Dihydroquercetin], the IC50 under setting [1] is over 500 µM.

`COc1ccc(-c2cc(=O)c3c(O)cc(O)cc3o2)cc1O` [Diosmetin]: the inhibitor class entry is recorded as “moderate inhibitors (compounds with IC50 value ranging from 100 μM to 200 μM were considered as moderate inhibitors)”. For the same molecule, the “Group (inhibitor class)” value (Table 2) is given as “Moderate inhibitor”.

Regarding `Oc1cc(O)c2c(c1)O[C@H](c1ccc(O)c(O)c1)[C@H](O)C2` [Epicatechin], the IC50 under setting [1] is over 500 µM.

As to `O=c1c(O)c(-c2ccc(O)c(O)c2)oc2cc(O)ccc12` [Fisetin], the inhibitor class entry is recorded as “moderate inhibitors (compounds with IC50 value ranging from 100 μM to 200 μM were considered as moderate inhibitors)”. Besides, the IC50 under setting [1] turned out to be 175 ± 18 µM. For the same molecule, the “Group (inhibitor class)” value (Table 2) is on record as “Moderate inhibitor”.

As for `O=c1c(O)c(-c2ccccc2)oc2cc(O)cc(O)c12` [Galangin], the inhibitor class entry was “moderate inhibitors (compounds with IC50 value ranging from 100 μM to 200 μM were considered as moderate inhibitors)”. In addition, under setting [1], the IC50 turned out to be 159 µM. Besides, the IC50 under setting [2] amounted to 159 µM. For the same molecule, the “Group (inhibitor class)” value (Table 2) is reported as “Moderate inhibitor”.

Take `COc1cc(O)c2c(=O)cc(-c3ccc(O)cc3)oc2c1` [Genkwanin]: the inhibitor class entry is listed as “weak thrombin inhibitors (classified as weak thrombin inhibitors since their IC50 values ranged from 200 μM to 500 μM)”. For the same molecule, the IC50 under setting [1] was 212 ± 30 µM. Moreover, under setting [3], the IC50 worked out at 211 µM.

`O=c1c(O)c(-c2ccc(O)cc2)oc2c(O)c(O)cc(O)c12` [Herbacetin]: the inhibitor class entry is recorded as “moderate inhibitors (compounds with IC50 value ranging from 100 μM to 200 μM were considered as moderate inhibitors)”. The IC50 under setting [1] came to 133 ± 4 µM. Moreover, the IC50 under setting [2] stood at 133 ± 4 µM. Also, under “Table 2”, the “Group (inhibitor class)” value is “Moderate inhibitor”.

Consider `COc1ccc([C@@H]2CC(=O)c3c(O)cc(O)cc3O2)cc1O` [Hesperetin], for which the 50% inhibitory concentration (IC50) under setting [1] was over 500 µM.

As to `COc1ccc([C@@H]2CC(=O)c3c(O)cc(O[C@@H]4O[C@H](CO[C@@H]5O[C@@H](C)[C@H](O)[C@@H](O)[C@H]5O)[C@@H](O)[C@H](O)[C@H]4O)cc3O2)cc1O` [Hesperidin], the 50% inhibitory concentration (IC50) under setting [1] is over 500 µM.

In the case of `COc1c(O)cc2oc(-c3ccc(O)cc3)cc(=O)c2c1O` [Hispidulin], the inhibitor class entry is “moderate inhibitors (compounds with IC50 value ranging from 100 μM to 200 μM were considered as moderate inhibitors)”. For the same molecule, the IC50 under setting [1] came to 126 ± 6 µM. Also, under setting [2], the IC50 came to 126 ± 6 µM. In addition, under “Table 2”, the “Group (inhibitor class)” value was “Moderate inhibitor”.

Turning to `COc1cc(O)c2c(=O)cc(-c3ccc(O)c(O)c3)oc2c1` [Hydroxygenkwanin], the IC50 reads like this: under setting [1], 99.7 ± 5.5 µM; under setting [2], 99.7 ± 5.5 µM. Moreover, the “Group (inhibitor class)” value (Table 2) is given as “Strong inhibitor”.

As for `O=c1c(O[C@@H]2O[C@H](CO)[C@@H](O)[C@H](O)[C@H]2O)c(-c2ccc(O)c(O)c2)oc2cc(O)cc(O)c12` [Isoquercitrin], the IC50 under setting [1] was over 500 µM.

`COc1cc(-c2oc3cc(O)cc(O)c3c(=O)c2OC2OC(CO)C(O)C(O)C2OC2OC(C)C(O)C(O)C2O)ccc1O` (stereo not drawn) [Isorhamnetin-3-O-neohesperidoside]: the IC50 under setting [1] is over 500 µM.

As for `COc1cc(-c2oc3cc(O)cc(O)c3c(=O)c2O)ccc1O` [Isorhamnetin], the “Group (inhibitor class)” value (Table 2) was “Strong inhibitor”.

For `O=c1c(O)c(-c2ccc(O)cc2)oc2cc(O[C@@H]3O[C@H](CO)[C@@H](O)[C@H](O)[C@H]3O)cc(O)c12` [Kaempferol-7-O-β-D-glucopyranoside], the IC50 under setting [1] was over 500 µM.

As to `O=c1c(O)c(-c2ccc(O)cc2)oc2cc(O)cc(O)c12` [Kaempferol], the inhibitor class result is given as “moderate inhibitors (compounds with IC50 value ranging from 100 μM to 200 μM were considered as moderate inhibitors)”. The IC50 under setting [1] was 107 ± 2 µM. Moreover, the IC50 under setting [2] was 107 ± 2 µM. Besides, the “Group (inhibitor class)” value (Table 2) is on record as “Moderate inhibitor”.

In the case of `O=c1cc(-c2ccc(O)c(O)c2)oc2cc(O)cc(O)c12` [Luteolin], the inhibitor class result is listed as “moderate inhibitors (compounds with IC50 value ranging from 100 μM to 200 μM were considered as moderate inhibitors)”. Under setting [1], the IC50 turned out to be 146 ± 10 µM. The “Group (inhibitor class)” value (Table 2) is “Moderate inhibitor”.

Turning to `O=c1cc(-c2ccc(O)c(O)c2)oc2cc(O[C@@H]3O[C@H](CO)[C@@H](O)[C@H](O)[C@H]3O)cc(O)c12` [Luteoloside], the inhibitor class entry is “moderate inhibitors (compounds with IC50 value ranging from 100 μM to 200 μM were considered as moderate inhibitors)”. Besides, the IC50 under setting [1] was determined as 155 ± 18 µM. Also, the IC50 under setting [2] came to 155 ± 18 µM. Also, the “Group (inhibitor class)” value (Table 2) was “Moderate inhibitor”.

In the case of `O=c1c(O)c(-c2ccc(O)cc2O)oc2cc(O)cc(O)c12` [Morin], the inhibitor class result was “weak thrombin inhibitors (classified as weak thrombin inhibitors since their IC50 values ranged from 200 μM to 500 μM)”. The IC50 under setting [1] was 237 ± 26 µM.

`O=C1C[C@@H](c2ccc(O)cc2)Oc2cc(O)cc(O)c21` [Naringenin]: under setting [1], the IC50 is over 500 µM.

Take `C[C@@H]1O[C@@H](O[C@H]2[C@H](Oc3cc(O)c4c(c3)O[C@H](c3ccc(O)cc3)CC4=O)O[C@H](CO)[C@@H](O)[C@@H]2O)[C@H](O)[C@H](O)[C@H]1O` [Naringin]: the inhibitor class result is recorded as “weak thrombin inhibitors (classified as weak thrombin inhibitors since their IC50 values ranged from 200 μM to 500 μM)”. Further, the IC50 under setting [1] was 444 ± 59 µM.

`C[C@@H]1O[C@@H](OC[C@H]2O[C@@H](Oc3cc(O)c4c(c3)O[C@H](c3ccc(O)cc3)CC4=O)[C@H](O)[C@@H](O)[C@@H]2O)[C@H](O)[C@H](O)[C@H]1O` [Narirutin]: the IC50 under setting [1] is over 500 µM.

`COc1ccc([C@@H]2CC(=O)c3c(O)cc(O[C@@H]4O[C@H](CO)[C@@H](O)[C@H](O)[C@H]4O[C@@H]4O[C@@H](C)[C@H](O)[C@@H](O)[C@H]4O)cc3O2)cc1O` [Neohesperidin]: the IC50 under setting [1] is over 500 µM.

In the case of `Oc1cc(O)c2c(c1)OC(c1ccc(O)c(O)c1)C(O)C2c1c(O)cc(O)c2c1OC(c1ccc(O)c(O)c1)C(O)C2` (stereo not drawn) [Proanthocyanidin B1], the IC50 under setting [1] is over 500 µM.

On to `O=c1c(O)c(-c2ccc(O)c(O)c2)oc2cc(O)cc(O)c12` [Quercetin], for which the inhibitor class result is on record as “weak thrombin inhibitors (classified as weak thrombin inhibitors since their IC50 values ranged from 200 μM to 500 μM)”.

With `C[C@@H]1O[C@@H](Oc2c(-c3ccc(O)c(O)c3)oc3cc(O)cc(O)c3c2=O)[C@H](O)[C@H](O)[C@H]1O` [Quercitrin], the half-inhibitory concentration (IC50) under setting [1] is over 500 µM.

Consider `C[C@@H]1O[C@@H](OC[C@H]2O[C@@H](Oc3c(-c4ccc(O)c(O)c4)oc4cc(O)cc(O)c4c3=O)[C@H](O)[C@@H](O)[C@@H]2O)[C@H](O)[C@H](O)[C@H]1O` [Rutin], for which the inhibitor class result is given as “weak thrombin inhibitors (classified as weak thrombin inhibitors since their IC50 values ranged from 200 μM to 500 μM)”. Moreover, the IC50 under setting [1] was 274 ± 23 µM.

For the molecule `O=c1cc(-c2ccc(O)cc2)oc2cc(O)c(O)c(O)c12` [Scutellarein], the IC50 was 70.8 ± 2.7 µM under setting [1], 70.8 ± 2.7 µM under setting [2] and under 100 µM under setting [3]. For the same molecule, the “Group (inhibitor class)” value (Table 2) was “Strong inhibitor”.

As to `COc1cc(-c2oc3cc(O)cc(O)c3c(=O)c2O[C@@H]2O[C@H](CO[C@@H]3O[C@@H](C)[C@H](O)[C@@H](O)[C@H]3O)[C@@H](O)[C@H](O)[C@H]2O[C@@H]2O[C@@H](C)[C@H](O)[C@@H](O)[C@H]2O)ccc1O` [Typhaneoside], the IC50 under setting [1] is over 500 µM.

In the case of `COc1c(O[C@@H]2O[C@H](C(=O)O)[C@@H](O)[C@H](O)[C@H]2O)cc(O)c2c(=O)cc(-c3ccccc3)oc12` [Wogonoside], the IC50 under setting [1] was over 500 µM.

On to Myricitrin, for which the “Group (inhibitor class)” value (Table 2) was “Strong inhibitor”.
